Data on 19 molecules can be found in patent US12486253B2, “Therapeutics for the degradation of mutant BRAF” (C4 THERAPEUTICS, INC., priority 2021, dated 2025).

This assay deals with BRAF V600E (Homo sapiens, UniProt P15056, V600E). In words: HiBiT cellular BRAF^V600E degradation assay. It is filed as cell-based. Particulars: for DC50: concentration at which 50% of total cellular BRAF^V600E is degraded; for Emax: read-out: HiBit 24 h Emax.
[1] abbreviates: A375.10 cells, 24 h, residual protein remaining in the cell.

SMILES strings stand for the structures. Read-outs that look alike come from different tables or passages of the source.

Sequence of BRAF V600E (P15056 whole entry V600E): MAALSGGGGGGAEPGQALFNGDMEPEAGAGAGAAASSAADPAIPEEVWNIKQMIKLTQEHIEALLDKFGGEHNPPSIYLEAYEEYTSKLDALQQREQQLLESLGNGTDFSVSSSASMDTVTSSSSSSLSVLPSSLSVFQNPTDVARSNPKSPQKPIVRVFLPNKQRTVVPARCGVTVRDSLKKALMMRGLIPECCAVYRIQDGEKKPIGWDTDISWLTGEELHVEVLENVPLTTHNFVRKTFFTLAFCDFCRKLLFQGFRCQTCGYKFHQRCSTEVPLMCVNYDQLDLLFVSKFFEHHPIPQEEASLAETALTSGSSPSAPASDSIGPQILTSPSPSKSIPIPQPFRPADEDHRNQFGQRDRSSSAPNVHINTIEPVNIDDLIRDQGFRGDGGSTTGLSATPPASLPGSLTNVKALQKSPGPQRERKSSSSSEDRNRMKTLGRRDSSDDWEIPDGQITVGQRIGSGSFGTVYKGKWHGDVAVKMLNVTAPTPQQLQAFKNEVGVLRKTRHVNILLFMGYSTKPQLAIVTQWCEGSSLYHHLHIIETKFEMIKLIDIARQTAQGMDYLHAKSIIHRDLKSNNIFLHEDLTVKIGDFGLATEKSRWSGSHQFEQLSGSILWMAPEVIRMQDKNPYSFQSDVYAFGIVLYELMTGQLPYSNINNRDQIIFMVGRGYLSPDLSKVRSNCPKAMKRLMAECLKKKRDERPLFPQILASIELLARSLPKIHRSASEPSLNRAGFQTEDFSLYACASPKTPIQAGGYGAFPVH

One may read the DC50 as the midpoint of the concentration-degradation curve. Lower therefore signals degradation at low concentration. Usually Emax stands for the size of the effect at its maximum, as opposed to the concentration needed. Where the note is “A375.10 cells, 24 h”, `CCN(C)S(=O)(=O)Nc1ccc(F)c(Oc2ccc3ncn([C@H]4COC5(CCN(C(=O)CN6CC[C@@H](c7cc8c(cc7F)c(N7CCC(=O)NC7=O)nn8C)C(F)(F)C6)CC5)C4)c(=O)c3c2)c1C#N` (single isomer, unassigned) [Example 204] yielded a half-maximal degradation concentration (DC50) of 29.8 nM. For the same molecule, the maximal effect (Emax) under setting [1] was 10.9%.

The molecule `CCN(C)S(=O)(=O)Nc1ccc(F)c(Oc2ccc3ncn(-c4cnn(C5CCN(CC(=O)N6CCC(c7ccc(NC8CCC(=O)NC8=O)cc7)CC6)CC5)c4)c(=O)c3c2)c1C#N` (centres unmarked) [Example 21, 6-[2-cyano-3-[[ethyl(methyl)sulfamoyl]amino]-6-fluorophenoxy]-3-[1-[1-[2-[4-[4-[(2,6-dioxopiperidin-3-yl)amino]phenyl]piperidin-1-yl]-2-oxoethyl]piperidin-4-yl]pyrazol-4-yl]-4-oxoquinazoline] came in with a DC50 (A375.10 cells, 24 h) of 34.3 nM. Further, the maximal effect (Emax) under setting [1] is 19.6%.

`N#Cc1c(NS(=O)(=O)C2CCCC2)ccc(F)c1Oc1ccc2ncn([C@H]3COC4(CCN(C(=O)CN5CCC(c6ccc(NC7CCC(=O)NC7=O)cc6F)CC5)CC4)C3)c(=O)c2c1` (stereo partly drawn) [Example 56, N-[2-cyano-3-[3-[(3R)-8-[2-[4-[4-[(2,6-dioxopiperidin-3-yl)amino]-2-fluorophenyl]piperidin-1-yl]acetyl]-1-oxa-8-azaspiro[4.5]decan-3-yl]-4-oxoquinazolin-6-yl]oxy-4-fluorophenyl]cyclopentanesulfonamide] gave a DC50 (A375.10 cells, 24 h) of 31.6 nM. For the same molecule, under setting [1], the Emax is 11.6%.

As for `CCN(C)S(=O)(=O)Nc1ccc(F)c(Oc2ccc3ncn(-c4cnn(C5CCN(C(=O)CN6CCC(c7ccc(NC8CCC(=O)NC8=O)c(F)c7)CC6)CC5)c4)c(=O)c3c2)c1C#N` (centres unmarked) [Example 19, 6-[2-cyano-3-[[ethyl(methyl)sulfamoyl]amino]-6-fluorophenoxy]-3-[1-[1-[2-[4-[4-[(2,6-dioxopiperidin-3-yl)amino]-3-fluorophenyl]piperidin-1-yl]acetyl]piperidin-4-yl]pyrazol-4-yl]-4-oxoquinazoline], the maximal effect (Emax) was 20.6%. Also, half-maximal degradation (A375.10 cells, 24 h) (DC50) was put at 42.3 nM.

As for `CCN(C)S(=O)(=O)Nc1ccc(F)c(Oc2ccc3ncn(C4CC5(CCN(C(=O)CC6(O)CCN(c7ccc(NC8CCC(=O)NC8=O)cc7F)CC6)CC5)C4)c(=O)c3c2)c1C#N` (centres unmarked) [Example 23, 6-[2-cyano-3-[[ethyl(methyl)sulfamoyl]amino]-6-fluorophenoxy]-3-[7-[2-[1-[4-[(2,6-dioxopiperidin-3-yl)amino]-2-fluorophenyl]-4-hydroxypiperidin-4-yl]acetyl]-7-azaspiro [3.5]nonan-2-yl]-4-oxoquinazoline], the 50% degradation concentration (DC50) (A375.10 cells, 24 h) was 19.3 nM. For the same molecule, under setting [1], the maximal effect (Emax) is 21.7%.

For the molecule `N#Cc1c(NS(=O)(=O)C2CCCCC2)ccc(F)c1Oc1ccc2ncn(-c3cnc(N4CCN(C(=O)CN5CCC(c6ccc(N[C@H]7CCC(=O)NC7=O)cc6F)CC5)CC4)nc3)c(=O)c2c1` [Example 105, N-[2-cyano-3-[3-[2-[4-[2-[4-[4-[[(3S)-2,6-dioxopiperidin-3-yl]amino]-2-fluorophenyl]piperidin-1-yl]acetyl]piperazin-1-yl]pyrimidin-5-yl]-4-oxoquinazolin-6-yl]oxy-4-fluorophenyl]cyclohexanesulfonamide], the Emax was 11.8%. Further, the half-maximal degradation concentration (DC50) (A375.10 cells, 24 h) came out at 17.7 nM.

`CCN(C)S(=O)(=O)Nc1ccc(F)c(Oc2ccc3ncc(C4COC5(CCN(C(=O)CC6(O)CCN(c7cc8c(cc7F)c(N7CCC(=O)NC7=O)nn8C)CC6)CC5)C4)nc3c2)c1C#N` (single isomer, unassigned) [Example 222] returned a DC50 (A375.10 cells, 24 h) of 20 nM. Besides, under setting [1], the maximal response (Emax) came to 24.4%.

In the case of `CCN(C)S(=O)(=O)Nc1ccc(F)c(Oc2ccc3ncn(C4CC5(CCN(C(=O)[C@H]6C[C@H](N7CC(c8ccc(NC9CCC(=O)NC9=O)cc8F)C7)C6)CC5)C4)c(=O)c3c2)c1C#N` (some centres unmarked) [Example 39, 6-[2-cyano-3-[[ethyl(methyl)sulfamoyl]amino]-6-fluorophenoxy]-3-[7-[3-[3-[4-[(2,6-dioxopiperidin-3-yl)amino]-2-fluorophenyl]azetidin-1-yl]cyclobutanecarbonyl]-7-azaspiro[3.5]nonan-2-yl]-4-oxoquinazoline], it took 27.5 nM to reach half-maximal degradation (A375.10 cells, 24 h) (DC50). For the same molecule, under setting [1], the Emax is 15.7%.

For `N#Cc1c(NS(=O)(=O)N2CCC(F)(F)C2)ccc(F)c1Oc1ccc2ncn(-c3cnc(N4CCN(C(=O)CN5CCC(c6ccc(N[C@@H]7CCC(=O)NC7=O)cc6F)CC5)CC4)nc3)c(=O)c2c1` [Example 123, N-[2-cyano-3-[3-[2-[4-[2-[4-[4-[[(3R)-2,6-dioxopiperidin-3-yl]amino]-2-fluorophenyl]piperidin-1-yl]acetyl]piperazin-1-yl]pyrimidin-5-yl]-4-oxoquinazolin-6-yl]oxy-4-fluorophenyl]-3,3-difluoropyrrolidine-1-sulfonamide], the 50% degradation concentration (DC50) (A375.10 cells, 24 h) came to 50.7 nM. Under setting [1], the maximum response (Emax) is 14%.

Consider `N#Cc1c(NS(=O)(=O)N2CCC2)ccc(F)c1Oc1ccc2ncn(-c3cnc(N4CCN(C(=O)CN5CCC(c6ccc(N[C@H]7CCC(=O)NC7=O)cc6F)CC5)CC4)nc3)c(=O)c2c1` [Example 130, N-[2-cyano-3-[3-[2-[4-[2-[4-[4-[[(3S)-2,6-dioxopiperidin-3-yl]amino]-2-fluorophenyl]piperidin-1-yl]acetyl]piperazin-1-yl]pyrimidin-5-yl]-4-oxoquinazolin-6-yl]oxy-4-fluorophenyl]azetidine-1-sulfonamide], for which it took 16.5 nM to reach half-maximal degradation (A375.10 cells, 24 h) (DC50). For the same molecule, the Emax under setting [1] turned out to be 7.25%.

On to `CCN(C)S(=O)(=O)Nc1ccc(F)c(Oc2ccc3ncn([C@H]4COC5(CCN(C(=O)C[C@H]6CC[C@H](c7ccc8c(C9CCC(=O)NC9=O)nn(C)c8c7)CC6)CC5)C4)c(=O)c3c2)c1C#N` (single isomer, unassigned) [Example 169], for which it took 11.9 nM to reach half-maximal degradation (A375.10 cells, 24 h) (DC50). For the same molecule, under setting [1], the maximum response (Emax) is 31.5%.

`CC(C)S(=O)(=O)Nc1ccc(F)c(Oc2ccc3ncn([C@H]4COC5(CCN(C(=O)CN6CCC(c7ccc8c(C9CCC(=O)NC9=O)nn(C)c8c7)CC6)CC5)C4)c(=O)c3c2)c1C#N` (stereo partly drawn) [Example 168, N-[2-cyano-3-[3-[(3R)-8-[2-[4-[3-(2,6-dioxopiperidin-3-yl)-1-methylindazol-6-yl]piperidin-1-yl]acetyl]-1-oxa-8-azaspiro[4.5]decan-3-yl]-4-oxoquinazolin-6-yl]oxy-4-fluorophenyl]propane-2-sulfonamide] returned a DC50 (A375.10 cells, 24 h) of 36.5 nM. Further, the Emax under setting [1] is 14.1%.

`CCN(C)S(=O)(=O)Nc1ccc(F)c(Oc2ccc3ncn([C@@H]4CCC5(CCN(C(=O)CN6CCC(c7ccc(N[C@@H]8CCC(=O)NC8=O)cc7F)CC6)CC5)C4)c(=O)c3c2)c1C#N` [Example 44, 6-[2-cyano-3-[[ethyl(methyl)sulfamoyl]amino]-6-fluorophenoxy]-3-[(3R)-8-[2-[4-[4-[[(3R)-2,6-dioxopiperidin-3-yl]amino]-2-fluorophenyl]piperidin-1-yl]acetyl]-8-azaspiro[4.5]decan-3-yl]-4-oxoquinazoline] returned a DC50 (A375.10 cells, 24 h) of 25.1 nM. Besides, under setting [1], the maximal effect (Emax) is 14.4%.

Take `CCN(C)S(=O)(=O)Nc1ccc(F)c(Oc2ccc3ncn(CCN4CCN(C(=O)CN5CCC(c6ccc(NC7CCC(=O)NC7=O)cc6F)CC5)CC4)c(=O)c3c2)c1C#N` (centres unmarked) [Example 8, 6-[2-cyano-3-[[ethyl(methyl)sulfamoyl]amino]-6-fluorophenoxy]-3-[2-[4-[2-[4-[4-[(2,6-dioxopiperidin-3-yl)amino]-2-fluorophenyl]piperidin-1-yl]acetyl]piperazin-1-yl]ethyl]-4-oxoquinazoline]: the DC50 (A375.10 cells, 24 h) was determined as 27.9 nM. For the same molecule, the Emax under setting [1] came to 10%.

`CCN(C)S(=O)(=O)Nc1ccc(F)c(Oc2ccc3ncn(-c4cnc(N5CCN(C(=O)CN6CCC(c7ccc(N[C@@H]8CCC(=O)NC8=O)cc7F)CC6)CC5)nc4)c(=O)c3c2)c1F` [Example 139, 3-[2-[4-[2-[4-[4-[[(3R)-2,6-dioxopiperidin-3-yl]amino]-2-fluorophenyl]piperidin-1-yl]acetyl]piperazin-1-yl]pyrimidin-5-yl]-6-[3-[[ethyl(methyl)sulfamoyl]amino]-2,6-difluorophenoxy]-4-oxoquinazoline]: the half-maximal degradation concentration (DC50) (A375.10 cells, 24 h) worked out at 41.2 nM. For the same molecule, under setting [1], the Emax came to 13.2%.

For `CCN(C)S(=O)(=O)Nc1ccc(F)c(Oc2ccc3ncn([C@H]4COC5(CCN(C(=O)CC6(O)CCN(c7cc8c(cc7F)c(N7CCC(=O)NC7=O)nn8C)CC6)CC5)C4)c(=O)c3c2OC)c1C#N` (single isomer, unassigned) [Example 181], the half-maximal degradation concentration (DC50) (A375.10 cells, 24 h) turned out to be 19.9 nM. Moreover, under setting [1], the maximal response (Emax) is 19.1%.

Turning to `CCN(C)S(=O)(=O)Nc1ccc(F)c(Oc2ccc3ncn([C@H]4COC5(CCN(C6CCC(c7ccc(NC8CCC(=O)NC8=O)cc7F)CC6)CC5)C4)c(=O)c3c2)c1C#N` (single isomer, unassigned) [Example 83], where the note is “A375.10 cells, 24 h”, the DC50 turned out to be 16.3 nM. In addition, the “HiBit 24 h Emax” value under setting [1] is listed as 27.77%.

As for `CCN(C)S(=O)(=O)Nc1ccc(F)c(Oc2ccc3ncn([C@H]4COC5(CCN(C(=O)CN6CC(c7ccc8c(C9CCC(=O)NC9=O)nn(C)c8c7)C6)CC5)C4)c(=O)c3c2)c1C#N` (stereo partly drawn) [Example 171, (3R)-3-[6-[2-cyano-3-[[ethyl(methyl)sulfamoyl]amino]-6-fluorophenoxy]-4-oxoquinazolin-3-yl]-8-[2-[3-[3-(2,6-dioxopiperidin-3-yl)-1-methylindazol-6-yl]azetidin-1-yl]acetyl]-1-oxa-8-azaspiro[4.5]decane], the DC50 (A375.10 cells, 24 h) was 30.7 nM. For the same molecule, the Emax under setting [1] stood at 7.11%.

Molecule `CCN(C)S(=O)(=O)Nc1ccc(F)c(Oc2ccc3ncn(-c4ccc(N5CCN(C(=O)CN6CCC(c7ccc(NC8CCC(=O)NC8=O)cc7F)CC6)CC5)nc4)c(=O)c3c2)c1C#N` (centres unmarked) [Example 85, 6-[2-cyano-3-[[ethyl(methyl)sulfamoyl]amino]-6-fluorophenoxy]-3-[6-[4-[2-[4-[4-[(2,6-dioxopiperidin-3-yl)amino]-2-fluorophenyl]piperidin-1-yl]acetyl]piperazin-1-yl]pyridin-3-yl]-4-oxoquinazoline] displayed a DC50 (A375.10 cells, 24 h) of 15.8 nM. Under setting [1], the Emax was 11%.
